SMILES strings stand for the structures. Where a SMILES comes first, the peptide text is derived from it. Bridges are numbered along the chain shown (N, C = ends). [ ]: non-standard residue; d: D form. The star is where a group is joined. ξ: configuration not given here. X1 = CC(C)(C)[Si](F)(c1ccc(C[N+](C)(C)CC(=O)*)cc1)C(C)(C)C; DO3AM = NC(=O)CN1CCN(CC(N)=O)CCN(CC(=O)*)CCN(CC(N)=O)CC1; ξW = NC(Cc1c[nH]c2ccccc12)C(=O)O; dDap = NC[C@@H](N)C(=O)O; ξF = NC(Cc1ccccc1)C(=O)O; ξD = NC(CC(=O)O)C(=O)O; ξC = NC(CS)C(=O)O

The nature of series [1]: Octanol-water distribution coefficient (logD pH 7.4) of the labeled tracer. It is filed as physicochemical. The settings on record: n-octanol/PBS pH 7.4, room temperature. Summed up:
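About 1 MBq tracer partitioned in 1:1 PBS pH 7.4/n-octanol, mixed 3 min at room temperature, centrifuged 15000 g for 5 min. Both layers counted by gamma counter; at least six repeats.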

The target of a further series is T1, SST2 (Homo sapiens, UniProt P30874).
T1 construct: expressed in transfected cells; host or cells: CHO (Chinese hamster ovary) cells
The experiment in a line: Determination of IC50: competitive binding against [125I]TOC on SST2-transfected CHO cells. The settings on record: [125I]TOC reference radioligand, 60 min room temperature.

The target of another series is HSA (Homo sapiens, UniProt P02768). The experiment in a line: HSA binding by RIAC method (gel filtration, apparent molecular weight). To be noted: HSA binding as apparent molecular weight, 700 μM HSA in PBS mobile phase. The format is in vitro ADME. The method, then: A gel filtration column Superdex 75 Increase 10/300 GL (GE Healthcare, Uppsala, Sweden) was beforehand calibrated following the producer's recommendations with a commercially available gel filtration calibration kit (GE Healthcare, Buckinghamshire, UK) comprising conalbumin (MW: 75 kDa), ovalbumin (44 kDa), carbonic anhydrase (29 kDa), ribonuclease A (13.7 kDa) and aprotinin (6.5 kDa) as reference proteins of known molecular weight. AMSEC experiments were conducted using a constant flow rate of 0.8 mL/min at rt. A solution of HSA in PBS at physiological concentration (700 μM) was used as the mobile phase. SST2 ligands were labelled as described with molar activities of 10-20 GBq/μmol. Probes of 1.0 MBq of the radioligand were injected directly from the labelling solution. HSA binding was expressed as an apparent molecular weight MW calculated from the retention time of the radioligand using the determined calibration curve.
For evaluation, experimentally determined retention times tR are first converted into elution volumes Ve by multiplying with the flow rate and thereafter converted into partition coefficients Kav following the equation
where V0 is the column void volume (8.027 mL) and Vc is the geometric column volume (24 mL). Using the equation given by the trend line plot of the column calibration
the apparent molecular weight MW is calculated as […]

T1 sequence (P30874 whole entry, species assumed): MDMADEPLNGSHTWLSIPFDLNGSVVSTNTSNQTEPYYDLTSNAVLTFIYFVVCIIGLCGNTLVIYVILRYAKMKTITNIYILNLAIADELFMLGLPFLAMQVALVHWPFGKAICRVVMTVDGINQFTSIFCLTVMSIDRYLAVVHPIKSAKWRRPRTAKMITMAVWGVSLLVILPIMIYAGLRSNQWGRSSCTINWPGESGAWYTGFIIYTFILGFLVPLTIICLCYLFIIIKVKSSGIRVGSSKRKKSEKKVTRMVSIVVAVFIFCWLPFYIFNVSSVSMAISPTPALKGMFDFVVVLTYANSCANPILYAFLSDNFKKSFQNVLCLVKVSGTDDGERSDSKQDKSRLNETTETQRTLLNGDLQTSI
HSA, sequence (P02768 25-609): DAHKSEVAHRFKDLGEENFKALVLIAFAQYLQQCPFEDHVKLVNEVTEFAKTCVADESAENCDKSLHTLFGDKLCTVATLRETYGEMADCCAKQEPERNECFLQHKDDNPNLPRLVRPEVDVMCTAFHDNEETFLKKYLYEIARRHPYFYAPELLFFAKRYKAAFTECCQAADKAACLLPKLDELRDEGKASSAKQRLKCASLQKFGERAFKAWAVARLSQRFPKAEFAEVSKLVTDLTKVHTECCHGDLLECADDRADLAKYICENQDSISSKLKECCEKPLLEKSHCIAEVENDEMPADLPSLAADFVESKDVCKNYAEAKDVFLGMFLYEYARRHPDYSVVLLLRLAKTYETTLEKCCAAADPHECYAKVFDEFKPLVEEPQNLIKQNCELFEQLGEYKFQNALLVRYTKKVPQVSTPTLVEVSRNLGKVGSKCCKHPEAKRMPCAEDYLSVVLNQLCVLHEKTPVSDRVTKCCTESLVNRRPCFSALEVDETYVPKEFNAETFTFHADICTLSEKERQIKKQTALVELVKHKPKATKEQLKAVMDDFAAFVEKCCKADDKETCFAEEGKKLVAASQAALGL

Take `C[C@@H](O)[C@H](NC(=O)C1CSSCC(NC(=O)C(Cc2ccccc2)NC(=O)CNC(=O)CNC(=O)[C@@H](CCCN)NC(=O)C(CCCN)NC(=O)[C@@H](CNC(=O)CC[C@H](C(=O)O)N2CCN(CC(=O)O)CCN(CC(=O)O)CCN(CC(=O)O)CC2)NC(=O)C(CN)NC(=O)c2ccc([Si](F)(C(C)(C)C)C(C)(C)C)cc2)C(=O)N[C@@H](Cc2ccc(O)cc2)C(=O)NC(Cc2c[nH]c3ccccc23)C(=O)N[C@@H](CCCCN)C(=O)N[C@@H]([C@@H](C)O)C(=O)N1)C(=O)O` (some centres unmarked) (natGa complex, metal not drawn) [[Ga]37]: the “LogDpH=7.4” value in series [1] is reported as −1.92 ± 0.04. This compound gave an IC50 at SST2 of 4.66 ± 0.53 nM. For the same compound, the HSA on HSA amounted to 17.60 kDa.

Take `C[C@@H](O)[C@H](NC(=O)C1CSSCC(NC(=O)C(Cc2ccccc2)NC(=O)CNC(=O)C(CC(=O)O)NC(=O)[C@@H](CC(=O)O)NC(=O)C(CNC(=O)CN2CCN(CC(=O)O)CCN(CC(=O)O)CCN(CC(=O)O)CC2)NC(=O)[C@@H](CN)NC(=O)c2ccc([Si](F)(C(C)(C)C)C(C)(C)C)cc2)C(=O)N[C@@H](Cc2ccc(O)cc2)C(=O)NC(Cc2c[nH]c3ccccc23)C(=O)N[C@@H](CCCCN)C(=O)N[C@@H]([C@@H](C)O)C(=O)N1)C(=O)O` (some centres unmarked) (natGa complex, metal not drawn) [[Ga]39]: the “LogDpH=7.4” value in series [1] was −2.20 ± 0.05. Besides, the IC50 at SST2 came out at 14.9 ± 1.22 nM. Also, the HSA on HSA was determined as 24.96 kDa.

Turning to `C[C@@H](O)[C@H](NC(=O)C1CSSCC(NC(=O)C(Cc2ccccc2)NC(=O)CNC(=O)CNC(=O)CNC(=O)C(CC(=O)O)NC(=O)[C@@H](CC(=O)O)NC(=O)C(CNC(=O)CN2CCN(CC(=O)O)CCN(CC(=O)O)CCN(CC(=O)O)CC2)NC(=O)[C@@H](CN)NC(=O)c2ccc([Si](F)(C(C)(C)C)C(C)(C)C)cc2)C(=O)N[C@@H](Cc2ccc(O)cc2)C(=O)NC(Cc2c[nH]c3ccccc23)C(=O)N[C@@H](CCCCN)C(=O)N[C@@H]([C@@H](C)O)C(=O)N1)C(=O)O` (some centres unmarked) (natGa complex, metal not drawn) [[Ga]40], the “LogDpH=7.4” value in series [1] is reported as −2.24 ± 0.03. The same compound yielded an IC50 at SST2 of 3.61 ± 0.29 nM. Further, on HSA, the HSA was found to be 19.25 kDa.

As to `C[C@@H](O)[C@H](NC(=O)C1CSSCC(NC(=O)C(Cc2ccccc2)NC(=O)CNC(=O)CNC(=O)[C@@H](CC(N)=O)NC(=O)C(CC(N)=O)NC(=O)[C@@H](CNC(=O)CC[C@H](C(=O)O)N2CCN(CC(=O)O)CCN(CC(=O)O)CCN(CC(=O)O)CC2)NC(=O)C(CN)NC(=O)c2ccc([Si](F)(C(C)(C)C)C(C)(C)C)cc2)C(=O)N[C@@H](Cc2ccc(O)cc2)C(=O)NC(Cc2c[nH]c3ccccc23)C(=O)N[C@@H](CCCCN)C(=O)N[C@@H]([C@@H](C)O)C(=O)N1)C(=O)O` (some centres unmarked) (natGa complex, metal not drawn) [[Ga]41], the “LogDpH=7.4” value in series [1] was −1.58 ± 0.05. Besides, the IC50 at SST2 came to 3.64 ± 0.64 nM. Moreover, the HSA at HSA is 15.48 kDa.

For the compound `C[C@@H](O)[C@H](NC(=O)C1CSSCC(NC(=O)C(Cc2ccccc2)NC(=O)[C@@H](CC(N)=O)NC(=O)C(CC(N)=O)NC(=O)[C@@H](CC(=O)O)NC(=O)C(CC(=O)O)NC(=O)[C@@H](CNC(=O)CN2CCN(CC(=O)O)CCN(CC(=O)O)CCN(CC(=O)O)CC2)NC(=O)C(CN)NC(=O)c2ccc([Si](F)(C(C)(C)C)C(C)(C)C)cc2)C(=O)N[C@@H](Cc2ccc(O)cc2)C(=O)NC(Cc2c[nH]c3ccccc23)C(=O)N[C@@H](CCCCN)C(=O)N[C@@H]([C@@H](C)O)C(=O)N1)C(=O)O` (some centres unmarked) (natGa complex, metal not drawn) [[Ga]42], the “LogDpH=7.4” value in series [1] is given as −2.41 ± 0.05. At SST2, the IC50 turned out to be 5.33 ± 0.78 nM. In addition, the HSA on HSA is 17.97 kDa.

Consider `C[C@@H](O)[C@H](NC(=O)C1CSSCC(NC(=O)C(Cc2ccccc2)NC(=O)CNC(=O)CNC(=O)CNC(=O)C(CC(=O)O)NC(=O)[C@@H](CC(=O)O)NC(=O)C(CNC(=O)CN2CCN(CC(=O)O)CCN(CC(=O)O)CCN(CC(=O)O)CC2)NC(=O)[C@@H](CN)NC(=O)CNC(=O)C[N+](C)(C)Cc2ccc([Si](F)(C(C)(C)C)C(C)(C)C)cc2)C(=O)N[C@@H](Cc2ccc(O)cc2)C(=O)NC(Cc2c[nH]c3ccccc23)C(=O)N[C@@H](CCCCN)C(=O)N[C@@H]([C@@H](C)O)C(=O)N1)C(=O)O` (some centres unmarked) [[Ga]52], for which the “LogDpH=7.4” value in series [1] is recorded as −2.00 ± 0.02. In addition, at HSA, the HSA stood at 7.82 kDa.

For `C[C@@H](O)[C@H](NC(=O)C1CSSCC(NC(=O)C(Cc2ccccc2)NC(=O)CNC(=O)CNC(=O)CNC(=O)C(CC(=O)O)NC(=O)[C@@H](CC(=O)O)NC(=O)C(CNC(=O)CN2CCN(CC(=O)O)CCN(CC(=O)O)CCN(CC(=O)O)CC2)NC(=O)[C@@H](CN)NC(=O)CNC(=O)CNC(=O)C[N+](C)(C)Cc2ccc([Si](F)(C(C)(C)C)C(C)(C)C)cc2)C(=O)N[C@@H](Cc2ccc(O)cc2)C(=O)NC(Cc2c[nH]c3ccccc23)C(=O)N[C@@H](CCCCN)C(=O)N[C@@H]([C@@H](C)O)C(=O)N1)C(=O)O` (some centres unmarked) [[Ga]53], the “LogDpH=7.4” value in series [1] is −1.96 ± 0.01. Besides, on HSA, the HSA is on record as 8.48 kDa.

Regarding `C[C@@H](O)[C@H](NC(=O)C1CSSCC(NC(=O)C(Cc2ccccc2)NC(=O)CNC(=O)CNC(=O)[C@@H](CC(=O)O)NC(=O)C(CC(=O)O)NC(=O)[C@@H](CNC(=O)CC[C@H](C(=O)O)N2CCN(CC(=O)O)CCN(CC(=O)O)CCN(CC(=O)O)CC2)NC(=O)C(CN)NC(=O)c2ccc([Si](F)(C(C)(C)C)C(C)(C)C)cc2)C(=O)N[C@@H](Cc2ccc(O)cc2)C(=O)NC(Cc2c[nH]c3ccccc23)C(=O)N[C@@H](CCCCN)C(=O)N[C@@H]([C@@H](C)O)C(=O)N1)C(=O)O` (some centres unmarked) [[Lu]20], the “LogDpH=7.4” value in series [1] is −2.35 ± 0.04. In addition, the HSA on HSA was 18.76 kDa.

As to `C[C@@H](O)[C@H](NC(=O)C1CSSCC(NC(=O)C(Cc2ccccc2)NC(=O)CNC(=O)CNC(=O)CNC(=O)C(CC(=O)O)NC(=O)[C@@H](CC(=O)O)NC(=O)C(CNC(=O)CN2CCN(CC(=O)O)CCN(CC(=O)O)CCN(CC(=O)O)CC2)NC(=O)C[N+](C)(C)Cc2ccc([Si](F)(C(C)(C)C)C(C)(C)C)cc2)C(=O)N[C@@H](Cc2ccc(O)cc2)C(=O)NC(Cc2c[nH]c3ccccc23)C(=O)N[C@@H](CCCCN)C(=O)N[C@@H]([C@@H](C)O)C(=O)N1)C(=O)O` (some centres unmarked) [[Lu]50], in series [1], the “LogDpH=7.4” value was −1.79 ± 0.02. Further, the HSA at HSA is listed as 8.17 kDa.

Take `C[C@@H](O)[C@H](NC(=O)C1CSSCC(NC(=O)C(Cc2ccccc2)NC(=O)CNC(=O)CNC(=O)CNC(=O)C(CC(=O)O)NC(=O)[C@@H](CC(=O)O)NC(=O)C(CNC(=O)CN2CCN(CC(=O)O)CCN(CC(=O)O)CCN(CC(=O)O)CC2)NC(=O)[C@@H](CN)NC(=O)C[N+](C)(C)Cc2ccc([Si](F)(C(C)(C)C)C(C)(C)C)cc2)C(=O)N[C@@H](Cc2ccc(O)cc2)C(=O)NC(Cc2c[nH]c3ccccc23)C(=O)N[C@@H](CCCCN)C(=O)N[C@@H]([C@@H](C)O)C(=O)N1)C(=O)O` (some centres unmarked) [[Lu]51]: in series [1], the “LogDpH=7.4” value is given as −1.71 ± 0.05. Moreover, the HSA at HSA was 8.84 kDa.

Consider `C[C@@H](O)[C@H](NC(=O)C1CSSCC(NC(=O)C(Cc2ccccc2)NC(=O)CNC(=O)CNC(=O)CNC(=O)C(CC(=O)O)NC(=O)[C@@H](CC(=O)O)NC(=O)C(CNC(=O)CN2CCN(CC(=O)O)CCN(CC(=O)O)CCN(CC(=O)O)CC2)NC(=O)[C@@H](CN)NC(=O)CNC(=O)C[N+](C)(C)Cc2ccc([Si](F)(C(C)(C)C)C(C)(C)C)cc2)C(=O)N[C@@H](Cc2ccc(O)cc2)C(=O)NC(Cc2c[nH]c3ccccc23)C(=O)N[C@@H](CCCCN)C(=O)N[C@@H]([C@@H](C)O)C(=O)N1)C(=O)O` (some centres unmarked) [[Lu]52], for which, in series [1], the “LogDpH=7.4” value was −1.88 ± 0.05. Also, the HSA on HSA is given as 8.47 kDa.

On to `C[C@@H](O)[C@H](NC(=O)C1CSSCC(NC(=O)C(Cc2ccccc2)NC(=O)CNC(=O)CNC(=O)CNC(=O)C(CC(=O)O)NC(=O)[C@@H](CC(=O)O)NC(=O)C(CNC(=O)CN2CCN(CC(=O)O)CCN(CC(=O)O)CCN(CC(=O)O)CC2)NC(=O)[C@@H](CN)NC(=O)CNC(=O)CNC(=O)C[N+](C)(C)Cc2ccc([Si](F)(C(C)(C)C)C(C)(C)C)cc2)C(=O)N[C@@H](Cc2ccc(O)cc2)C(=O)NC(Cc2c[nH]c3ccccc23)C(=O)N[C@@H](CCCCN)C(=O)N[C@@H]([C@@H](C)O)C(=O)N1)C(=O)O` (some centres unmarked) [[Lu]53], for which the “LogDpH=7.4” value in series [1] is on record as −1.74 ± 0.03. For the same compound, on HSA, the HSA stood at 9.81 kDa.

`C[C@@H](O)[C@H](NC(=O)C1CSSCC(NC(=O)C(Cc2ccccc2)NC(=O)CNC(=O)CNC(=O)[C@@H](CC(=O)O)NC(=O)C(CC(=O)O)NC(=O)[C@@H](CNC(=O)CN2CCN(CC(N)=O)CCN(CC(N)=O)CCN(CC(N)=O)CC2)NC(=O)C[N+](C)(C)Cc2ccc([Si](F)(C(C)(C)C)C(C)(C)C)cc2)C(=O)N[C@@H](Cc2ccc(O)cc2)C(=O)NC(Cc2c[nH]c3ccccc23)C(=O)N[C@@H](CCCCN)C(=O)N[C@@H]([C@@H](C)O)C(=O)N1)C(=O)O` (some centres unmarked) [[Pb]38] (X1-[dDap](DO3AM)[ξD][dD]GG[ξF][ξC]Y[ξW]KT[ξC]T-OH; disulfide 7-12): the “LogDpH=7.4” value in series [1] is listed as −1.95 ± 0.03. In addition, on SST2, the IC50 was 4.67 ± 0.73 nM. Moreover, the HSA on HSA is 9.20 kDa.

For the origin of these results see patent US20240317780A1, “RADIOPHARMACEUTICAL SOMATOSTATIN RECEPTOR LIGANDS AND PRECURSORS THEREOF” (Technische Universität München, priority 2021, published 2024).
